Consider four compounds from patent US6458840B2, “Use of valproic acid analog for the treatment and prevention of migraine and affective illness” (American Biogenetic Sciences, Inc., priority 1998, dated 2002).

The test system of series [1] is amygdala-kindled seizures. The following applies: rats; cited from earlier work.
A further series relates to PTZ induced seizures. The settings on record: literature / earlier application; cited from earlier work.
The nature of series [2]: Rotarod test (neurological deficit) in kindled rats. Format: in vivo, rat. The settings on record: 100 mg/kg; 13′; all 8 animals +. On the procedure: (§1) Tests included open field observations, rotarod test and body temperature. Tests were always performed in the same manner in control and drug experiments at two different times, just before application of drug or vehicle and 13 minutes after application.
The rotarod test was carried out with a rod of 6 cm diameter and rotation speed of 8 r.p.m. Neurological deficit was indicated by inability of the animals to maintain their equilibrium for at least 1 min on the rotating rod. Rats had to be trained prior to drug experiments to maintain their balance on the rod. After drug or vehicle treatment, rats which were not able to maintain their equilibrium on the rod for 1 minute were put again on the rod twice.
For orientation: The rotarod test checks motor coordination on a turning rod.

Series [3] deals with amygdala-kindled seizures. As to the kind of experiment: Amygdala-kindling in fully kindled rats (anti-seizure effects). Format: in vivo, rat. The following applies: 100 mg/kg. The protocol:
For implantation of stimulation and recording electrodes, rats were anesthetized with chloral hydrate (360 mg/kg i.p.) and received stereotaxic implantation (according to the surgery methods described in the atlas of Paxinos and Watson [1986]) of one bipolar electrode in the right basolateral amygdala. Coordinates for electrode implantation were AP-2.2 mm, L-4.8 mm, V-8.5 mm. All coordinates were measured from bregma. Skull screws served as the indifferent reference electrode. The electrode assembly was attached to the skull by dental acrylic cement. After a postoperative period of 2 weeks, constant current stimulations (500 μA, 1 ms, monophasic square-wave pulses, 50/s for 1 s) were delivered to the amygdala at intervals of 1/day until ten stage 5 seizures were elicited. The electrical susceptibility of the stimulated region (threshold for induction of afterdischarges) was recorded on the first day of the experiment (initial afterdischarge threshold) as well as after kindling acquisition (with an interval of at least 4 days after the tenth stage 5 seizure) using an ascending staircase procedure. The initial current intensity was 1 OμA, and the current intensity was increased in steps of about 20% of the previous current at intervals of 1 min until an afterdischarge of at least 3 s duration was elicited. […] In addition to afterdischarge threshold, the following parameters of kindled seizures were measured in fully-kindled rats after stimulation with the afterdischarge threshold current: seizure severity was classified according to Racine (1972): 1 -immobility, eye closure, twitching of vibrissae, sniffing, facial clonus; 2-head nodding associated with more severe facial clonus; 3-clonus of one forelimb; 4-rearing, often accompanied by bilateral forelimb clonus; 5-rearing with loss of balance and falling accompanied by generalized clonic seizures. Seizure duration 1 (SD 1) was the duration of limbic (stage 1-2) and/or motor seizures (stage 3-5). Seizure duration 2 (SD 2) included the time of limbic and/or motor seizures plus the adjacent time of immobility. Afterdischarge duration 1 (ADD 1) was the time of spikes in the EEG recorded from the site of stimulation with a frequency of at least 1 /s. Afterdischarge duration 2 (ADD 2) was the total time of spikes occurring in the EEG including those, which followed the ADD 1 with lower frequency and amplitude.
The anti-seizure effects of 2-propyl-4-hexynoic acid and valproate in fully kindled rats were determined in a group of 8-9 rats (no. 784, 785, 787, 788, 789, 790 [had to be taken out of the trial, because of loss of electrodes], 791, 792, 793) with reproducible stage 5 seizures.
Drugs were injected 15 min prior to stimulation intraperitoneally. Control experiments were always performed 2-3 days before each drug experiment. For control determinations, rats received i.p. injections of vehicle (saline) with the pretreatment time of the respective drug experiment. For all drug experiments, at least 4 days were interposed between 2 drug injections in order to avoid alterations in drug potency due to cumulation or tolerance.
The significance of differences between pre-drug control recordings and recordings after drug injection was calculated by the Wilcoxon signed rank test for paired replicates (SigmaStat for Windows, version 1.0).

A further series in a line: Rectal body temperature. Type of series: in vivo, rat. The following applies: 100 mg/kg; 13′ post appl.; mean of 8 rats; ante appl. 38.71. On the procedure: Female Wistar rats (Harlan-Winkelmann, Borchen, Germany) were obtained at an age of 11-12 weeks (body weight 180-200 g). Female rats were employed because they are known to eliminate drugs less rapidly than do males, which was thought to be an advantage for drug potency studies. Rats were kept separately in plastic cages at controlled temperature (23° C.) and humidity (about 50 %) with a 12-h light cycle beginning at 7 a.m. They received standard diet (Altromin; Lage, F.R.G.), tap water and libitum. All drug injections were done in the afternoon at an ambient temperature of 23-25° C. The regular protocol started by taking the rats out of their individual cage, weighing them and joining them together on a table with six open plastic cages for better behavioral observations. Therefore animals were able to move from one cage to another and either to have social contact or to avoid it. After a short adaptation time of approximately 15 minutes, rectal body temperatures were recorded followed by drug or vehicle application.
as §1
In addition to these quantitative estimations of neurological deficit, behavioral alterations observed after administration of 2-propyl-4-hexynoic acid and valproate noted in the cage and by placing the animals in an open field of 90-100 cm diameter. Muscle tone was estimated by palpation of the abdomen. The extent of deficits in behavior after administration of the compounds was determined by a rating system (Loscher et al. 1987). In short, animals were taken out of the cage, placed in an open field, observed for about 1 minute and rated separately for ataxia, abducted hindlimbs, reduced righting, flat body posture, circling, Straub tail, piloerection, hypolocomotion and hyperlocomotion (abdominal muscle tone was evaluated by palpation at the end of the period of observation). All other parameters except ataxia were scored from 0 to 3: 0-absent; 1-equivocal; 2-present; 3- intense. For ataxia (06): 1 -slight ataxia in hind-legs (tottering of the hind quarters); 2-more pronounced ataxia with dragging of hind legs; 3-further increase of ataxia and more pronounced dragging of hind legs; 4-marked ataxia, animals lose balance during forward locomotion; 5- very marked ataxia with frequent loss of balance during forward locomotion; 6-permanent loss of righting reflexes, but animal still attempts to move forward. Rectal body temperature was measured by an electronic thermometer. Body weight of the animals was recorded once daily before drug injection. Significance of differences in behavior between pre-drug and post-drug data determined in the same group of animals was calculated by the Wilcoxon signed rank test for paired replicates and for body temperature by Student's paired t-test (SigmaStat for Windows, version 1.0). Differences in body temperature were always compared only within the experimental day with the pre-drug time as control to one post-drug time.

On to `O=C1NC(=O)C(c2ccccc2)(c2ccccc2)N1` [Phenytoin], for which, in series [1], the “effect on complete, late-stage or spontaneous kindled seizures, in words” value (“effect on complete” below) is “effective block of spontaneous seizures” and the “effect on development / early stages of kindled seizures, in words” value (from here on “effect on development / early stages”) was “not seizures elicited during the early stages of kindling”.

Consider `CN1C(=O)CN=C(c2ccccc2)c2cc(Cl)ccc21` [Diazepam], for which, in series [1], the “effect on complete” value is given as “not effective during the late stages” and the “effect on development / early stages” value is listed as “effective in inhibiting the earlier stages of seizure development”.

For the compound `NC(=O)N1c2ccccc2C=Cc2ccccc21` [carbamazepine], the “antiepileptic effect in PTZ test, in words” value with PTZ induced seizures is recorded as “less effective”. Besides, in series [1], the “effect on complete” value was “suppresses complete amygdala-kindled seizures” and the “effect on development / early stages” value is “ineffective in preventing their development”.

On to `CC#CCC(CCC)C(=O)O` (stereo not drawn) [2-propyl-4-liexynoic acid], for which the “rotarod-test, day of exper.” value in series [2] came to 0%. Also, the “afterdisch.thresh. (ADT; μA)” value in series [3] (mean (X) of 8 kindled rats, control mean 48.50) was determined as 126.25 μA. For the same compound, in series [3] (mean of 8 rats, control mean 5.00), the “seizure severity (SS; score)” value turned out to be 3.63 score. Besides, the “seizure duration1 (SD1; sec)” value in series [3] (mean of 8 rats, control mean 83.00) was found to be 46.50 s. The “afterdisch.dur.1 (ADD1;sec)” value in series [3] (mean of 8 rats, control mean 86.00) stood at 62.75 s. Also, the “afterdisch.dur.2 (ADD2; sec)” value in series [3] (mean of 8 rats, control mean 86.88) was 62.75 s. Further, the “seizure duration2 (SD2; sec)” value in series [3] (mean of 8 rats, control mean 258.75) turned out to be 105.63 s. Moreover, the “BODY TEMP. (° C.) day of exper. 13′ post appl.” value in the series “Rectal body temperature” worked out at 38.31 °C.
